The source of these data is patent US9464084B2, “P2X7 modulators” (Janssen Pharmaceutica NV, priority 2013, dated 2016).

Assay [1] has as its target rat P2X7 (Rattus norvegicus (Rat), UniProt Q64663). Kind of assay: Ca2+ flux (FLIPR) in 1321N1 cells expressing recombinant rat P2X7 channel.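 Also: Calcium-4 dye fluorescence change read 180 s after agonist addition, following 30 min cell preincubation with test compound.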 The format is cell-based. To be noted: 250 μM BzATP.
Experimental: (§1) Cells were seeded at a density of 25000 cells/well (96-well clear bottom black walled plates) in 100 μl volume/well. On the day of the experiment, cell plates were washed with assay buffer, containing (in mM): 130 NaCl, 2 KCl, 1 CaCl2, 1 MgCl2, 10 HEPES, 5 glucose; pH 7.40 and 300 mOs. After the wash, cells were loaded with the Calcium-4 dye (Molecular Device) and incubated in the dark for 60 minutes. Test compounds were prepared at 250× the test concentration in neat DMSO. Intermediate 96-well compound plates were prepared by transferring 1.2 μL of the compound into 300 μL of assay buffer. A further 3× dilution occurred when transferring 50 μL/well of the compound plate to 100 μL/well in the cell plate. Cells were incubated with test compounds and dye for 30 minutes. […] The fluorescence change was measured 180 seconds after adding the agonist.
The target in assay [2] is T1, P2X7 (Homo sapiens (Human), UniProt Q99572). Put plainly: Ca2+ flux (FLIPR) in 1321N1 cells expressing recombinant human P2X7 channel.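 Also: Calcium-4 dye-loaded cells exposed to compound for 30 min before agonist addition, fluorescence change read 180 s after agonist.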 It is filed as cell-based. To be noted: 250 μM BzATP.
T1 sequence (Q99572 whole entry): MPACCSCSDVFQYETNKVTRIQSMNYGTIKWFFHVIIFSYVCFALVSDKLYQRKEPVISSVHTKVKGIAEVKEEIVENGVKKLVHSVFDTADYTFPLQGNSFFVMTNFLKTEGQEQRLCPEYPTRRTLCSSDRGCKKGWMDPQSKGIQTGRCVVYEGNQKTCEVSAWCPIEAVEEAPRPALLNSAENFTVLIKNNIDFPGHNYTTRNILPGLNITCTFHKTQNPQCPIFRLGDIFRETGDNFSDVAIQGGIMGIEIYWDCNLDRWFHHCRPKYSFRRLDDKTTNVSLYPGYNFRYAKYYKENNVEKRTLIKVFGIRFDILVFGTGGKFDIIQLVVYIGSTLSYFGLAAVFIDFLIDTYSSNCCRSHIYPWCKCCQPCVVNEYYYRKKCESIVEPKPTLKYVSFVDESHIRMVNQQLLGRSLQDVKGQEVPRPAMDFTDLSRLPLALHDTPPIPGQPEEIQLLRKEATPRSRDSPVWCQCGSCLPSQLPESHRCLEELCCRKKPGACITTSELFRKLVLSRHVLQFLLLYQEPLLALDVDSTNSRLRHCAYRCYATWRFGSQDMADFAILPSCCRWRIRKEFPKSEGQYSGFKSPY
Experimental: as §1
Assay [3] addresses T1, P2X7. Put plainly: Radioligand binding, tritiated A-804598, human P2X7-1321N1 cell membranes.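 Also: ki obtained from the binding IC50 after correction for tracer concentration and tracer affinity.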 To be noted: 1 hour at 4° C.
Experimental: On the day of the experiment, cell membrane preparations were made according to standard published methods. […] The assay was terminated by filtration (GF/B filters pre-soaked with 0.3% PEI) and washed with washing buffer (Tris-HCl 50 mM). The IC50 generated in the binding assay was corrected for tracer concentration and affinity of the tracer to derive at the affinity (Ki) of the test compounds.
For assay [4], the target named is T1, P2X7. Put plainly: P2X7 antagonism in human PBMCs (LPS + Bz-ATP induced IL-1β release, ELISA).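 As to all read-outs here: PBMCs from donor human blood, with a further 1.5 h incubation of the cells in the assay.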 It is filed as cell-based. The following applies: LPS 30 ng/ml, Bz-ATP 0.5 mM; for PBMC 10 μM (% control): compound 10 μM; for PBMC 1 μM (% control): compound 1 μM. On the technique in general: ELISA stands for enzyme-linked immunosorbent assay.

rat P2X7, sequence (Q64663 whole entry): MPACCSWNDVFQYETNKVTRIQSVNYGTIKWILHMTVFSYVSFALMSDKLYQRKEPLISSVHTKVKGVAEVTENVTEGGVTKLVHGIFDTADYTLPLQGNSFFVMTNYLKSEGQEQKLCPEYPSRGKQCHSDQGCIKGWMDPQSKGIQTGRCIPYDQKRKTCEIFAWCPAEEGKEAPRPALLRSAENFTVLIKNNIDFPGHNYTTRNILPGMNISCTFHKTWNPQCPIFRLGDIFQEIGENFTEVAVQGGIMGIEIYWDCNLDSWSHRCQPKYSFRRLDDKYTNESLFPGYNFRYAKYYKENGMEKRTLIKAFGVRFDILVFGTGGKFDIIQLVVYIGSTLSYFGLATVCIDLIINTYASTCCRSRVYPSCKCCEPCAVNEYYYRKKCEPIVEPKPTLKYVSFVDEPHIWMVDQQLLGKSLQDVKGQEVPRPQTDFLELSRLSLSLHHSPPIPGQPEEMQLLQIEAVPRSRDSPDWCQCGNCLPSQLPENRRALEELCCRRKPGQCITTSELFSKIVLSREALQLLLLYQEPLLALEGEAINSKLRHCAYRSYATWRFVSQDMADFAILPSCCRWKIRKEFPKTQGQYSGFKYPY

For orientation: IC50 means the concentration at which inhibition is half-maximal. For orientation: Ki means the equilibrium dissociation constant of an inhibitor or competing ligand from its target. A higher Ki goes with weaker binding. In the case of `O=C(c1cccc(C(F)(F)F)c1Cl)N1CCc2c(-c3cnccn3)n[nH]c2C1` [Example 97, 6-{[2-Chloro-3-(trifluoromethyl)phenyl]carbonyl}-3-pyrazin-2-yl-4,5,6,7-tetrahydro-2H-pyrazolo[3,4-c]pyridine], the IC50 in assay [1] is 2290 nM; in assay [2], 4.5 nM. This molecule also registered an inhibition constant (Ki) in assay [3] of 20 nM. Further, the “PBMC 10 μM (% control)” value in assay [4] came out at 12.7 % control.
Consider `O=C(c1cccc(C(F)(F)F)c1Cl)N1CCc2c(-c3ncccn3)n[nH]c2C1` [Example 98, 6-{[2-Chloro-3-(trifluoromethyl)phenyl]carbonyl}-3-pyrimidin-2-yl-4,5,6,7-tetrahydro-2H-pyrazolo[3,4-c]pyridine], for which the IC50 in assay [1] stood at 548 nM; in assay [2], 6.6 nM. This molecule gave a Ki in assay [3] of 14.1 nM. Also, the “PBMC 10 μM (% control)” value in assay [4] turned out to be 32.5 % control.
Take `O=C(c1ccnc(Cl)c1Cl)N1CCc2c(-c3ccccc3)n[nH]c2C1` [Example 104, 6-[(2,3-Dichloropyridin-4-yl)carbonyl]-3-phenyl-4,5,6,7-tetrahydro-1H-pyrazolo[3,4-c]pyridine]: the half-maximal inhibitory concentration (IC50) was determined as 1610 nM in assay [1] and 205 nM in assay [2]. Further, the Ki in assay [3] was 50.1 nM. The “PBMC 1 μM (% control)” value in assay [4] was 8.9 % control.
As to `Cn1nc2c(c1-c1cncnc1)CCN(C(=O)c1cccc(C(F)(F)F)c1Cl)C2` [Example 113, 6-{[2-Chloro-3-(trifluoromethyl)phenyl]carbonyl}-2-methyl-3-pyrimidin-5-yl-4,5,6,7-tetrahydro-2H-pyrazolo[3,4-c]pyridine], the half-maximal inhibitory concentration (IC50) in assay [1] was more than 10000 nM; in assay [2], 855 nM. In assay [3], the Ki is 398 nM. In assay [4], the “PBMC 10 μM (% control)” value worked out at 42.6 % control.
Turning to `CC1Cc2c(nnn2-c2ccccn2)CN1C(=O)c1ccc(F)c(Cl)c1Cl` (stereo not shown) [Example 121, 5-[(2,3-Dichloro-4-fluorophenyl)carbonyl]-6-methyl-1-pyridin-2-yl-4,5,6,7-tetrahydro-1H-[1,2,3]triazolo[4,5-c]pyridine], the half-maximal inhibitory concentration (IC50) in assay [1] was 6.5 nM; in assay [2], 3.2 nM. In addition, in assay [3], the inhibition constant Ki was 11.2 nM. Also, in assay [4], the “PBMC 10 μM (% control)” value was −0.2 % control.
Take `O=C(c1cccc(C(F)(F)F)c1F)N1CCc2c(nnn2-c2ccccn2)C1` [Example 123, (2-Fluoro-3-(trifluoromethyl)phenyl)(1-(pyridin-2-yl)-6,7-dihydro-1H-[1,2,3]triazolo[4,5-c]pyridin-5(4H)-yl)methanone]: the values for the IC50 in assay [1] and in assay [2] were 1000 nM and 50.1 nM, respectively. The same molecule had an inhibition constant Ki in assay [3] of 63.1 nM. In addition, in assay [4], the “PBMC 1 μM (% control)” value is recorded as 22.0 % control.
As for `Cn1ccc(-n2nnc3c2CCN(C(=O)c2cccc(C(F)(F)F)c2Cl)C3)n1` [Example 127, (2-Chloro-3-(trifluoromethyl)phenyl)(1-(1-methyl-1H-pyrazol-3-yl)-6,7-dihydro-1H-[1,2,3]triazolo[4,5-c]pyridin-5(4H)-yl)methanone], the IC50 in assay [1] turned out to be 89.1 nM; in assay [2], 22.1 nM. In assay [3], this molecule gave an inhibition constant Ki of 39.8 nM. Further, the “PBMC 10 μM (% control)” value in assay [4] is listed as 9.2 % control.
For the molecule `Cc1c(C(=O)N2CCc3c(nnn3-c3ccccn3)C2)ccc(F)c1F` [Example 132, (3,4-Difluoro-2-methylphenyl)(1-(pyridin-2-yl)-6,7-dihydro-1H-[1,2,3]triazolo-[4,5-c]pyridin-5(4H)-yl)methanone], the IC50 in assay [1] stood at 4430 nM; in assay [2] it was 78.3 nM. This molecule also came in with a Ki in assay [3] of 50.1 nM. For the same molecule, in assay [4], the “PBMC 10 μM (% control)” value came out at 3.8 % control.
On to `CC1c2nnn(-c3ncc(F)cn3)c2CCN1C(=O)c1cccc(Cl)c1Cl` (stereo not shown) [Example 174, (2,3-Dichlorophenyl)(1-(5-fluoropyrimidin-2-yl)-4-methyl-6,7-dihydro-1H-[1,2,3]triazolo[4,5-c]pyridin-5(4H)-yl)methanone], for which the IC50 worked out at 1680 nM in assay [1] and 3.3 nM in assay [2]. The same molecule showed a Ki in assay [3] of 50.1 nM. Also, the “PBMC 10 μM (% control)” value in assay [4] came to 4.2 % control.
Take `CC1Cc2c(nnn2-c2cc[nH]n2)CN1C(=O)c1cccc(C(F)(F)F)c1F` (stereo not shown) [Example 189, (2-fluoro-3-(trifluoromethyl)phenyl)(6-methyl-1-(1H-pyrazol-3-yl)-6,7-dihydro-1H-[1,2,3]triazolo[4,5-c]pyridin-5(4H)-yl)methanone]: the IC50 in assay [1] is 6.3 nM; in assay [2], 3.9 nM. This molecule also displayed an inhibition constant Ki in assay [3] of 13.5 nM. Further, in assay [4], the “PBMC 10 μM (% control)” value is 0.5 % control.
Regarding `Cc1ccnc(-n2nnc3c2CCN(C(=O)c2cccc(Cl)c2Cl)C3C)n1` (stereo not shown) [Example 225, (2,3-dichlorophenyl)(4-methyl-1-(4-methylpyrimidin-2-yl)-6,7-dihydro-1H-[1,2,3]triazolo[4,5-c]pyridin-5(4H)-yl)methanone], the IC50 in assay [1] amounted to 42.3 nM; in assay [2], 6.2 nM. The molecule further displayed an inhibition constant Ki in assay [3] of 9.1 nM. For the same molecule, in assay [4], the “PBMC 10 μM (% control)” value is −1.0 % control.
Taken in the same sequence, the figures for `CC1Cc2c(nnn2-c2ccc(F)cc2)C(C)N1C(=O)c1cccc(Cl)c1Cl` (stereo not shown) [Example 242, (2,3-Dichlorophenyl)(1-(4-fluorophenyl)-4,6-dimethyl-6,7-dihydro-1H-[1,2,3]triazolo[4,5-c]pyridin-5(4H)-yl)methanone] were 60.4 nM, 81.5 nM, 25.1 nM and −3.4 % control.
With `CC1CN(C(=O)c2cccc(C(F)(F)F)c2Cl)Cc2nnn(-c3ccccc3)c21` (stereo not shown) [Example 245, (2-Chloro-3-(trifluoromethyl)phenyl)(7-methyl-1-phenyl-6,7-dihydro-1H-[1,2,3]triazolo[4,5-c]pyridin-5(4H)-yl)methanone], the IC50 came to 2070 nM in assay [1] and 161 nM in assay [2]. The molecule further gave a Ki in assay [3] of 100 nM. The “PBMC 10 μM (% control)” value in assay [4] is −7.3 % control.
Taken in the same sequence, the figures for `CC1CN(C(=O)c2cccc(C(F)(F)F)c2Cl)Cc2nnn(-c3ccc(F)cc3)c21` (stereo not shown) [Example 246, (2-Chloro-3-(trifluoromethyl)phenyl)(1-(4-fluorophenyl)-7-methyl-6,7-dihydro-1H-[1,2,3]triazolo[4,5-c]pyridin-5(4H)-yl)methanone] were 6530 nM, 230 nM, 174 nM and −3.1 % control.
Taken in the same sequence, the figures for `Cc1cncc(-n2nnc3c2CCN(C(=O)c2cccc(C(F)(F)F)c2Cl)C3C)n1` (stereo not shown) [Example 251, (2-Chloro-3-(trifluoromethyl)phenyl)(4-methyl-1-(6-methylpyrazin-2-yl)-6,7-dihydro-1H-[1,2,3]triazolo[4,5-c]pyridin-5(4H)-yl)methanone] were 9110 nM, 124 nM, 144 nM and 11.6 % control.
With `Cc1ccnc(-n2nnc3c2CCN(C(=O)c2cccc(C(F)(F)F)c2Cl)C3C)n1` (stereo not shown) [Example 252, (2-Chloro-3-(trifluoromethyl)phenyl)(4-methyl-1-(4-methylpyrimidin-2-yl)-6,7-dihydro-1H-[1,2,3]triazolo[4,5-c]pyridin-5(4H)-yl)methanone], the IC50 stood at 22.3 nM in assay [1] and 18.8 nM in assay [2]. Moreover, in assay [3], the inhibitory constant (Ki) was found to be 28.2 nM. The “PBMC 10 μM (% control)” value in assay [4] is −0.8 % control.
Taken in the same sequence, the figures for `COc1cccnc1-n1nnc2c1CCN(C(=O)c1cccc(C(F)(F)F)c1Cl)C2C` (stereo not shown) [Example 260, (2-Chloro-3-(trifluoromethyl)phenyl)(1-(3-methoxypyridin-2-yl)-4-methyl-6,7-dihydro-1H-[1,2,3]triazolo[4,5-c]pyridin-5(4H)-yl)methanone] were 6930 nM, 27 nM, 35.5 nM and 1.4 % control.
The corresponding values for `CC1Cc2c(-c3ccnn3C)nn(C)c2CN1C(=O)c1cccc(C(F)(F)F)c1Cl` (stereo not shown) [Example 266, (2-chloro-3-(trifluoromethyl)phenyl)(1,5-dimethyl-3-(1-methyl-1H-pyrazol-5-yl)-4,5-dihydro-1H-pyrazolo[3,4-c]pyridin-6(7H)-yl)methanone] are 12.6 nM, 12.7 nM, 20 nM and 5.8 % control.
Taken in the same sequence, the figures for `CC1Cc2c(-c3ccn[nH]3)n[nH]c2CN1C(=O)c1cccc(C(F)(F)F)c1Cl` (stereo not shown) [Example 267, (2-chloro-3-(trifluoromethyl)phenyl)(5-methyl-3-(1H-pyrazol-5-yl)-4,5-dihydro-1H-pyrazolo[3,4-c]pyridin-6(7H)-yl)methanone] were 9.5 nM, 8.1 nM, 10 nM and −50.8 % control.
For the molecule `O=C(c1ccc(Cl)cc1F)N1CCc2c(nnn2-c2cnccn2)C1` [Example 272, (4-chloro-2-fluorophenyl)(1-(pyrazin-2-yl)-6,7-dihydro-1H-[1,2,3]triazolo[4,5-c]pyridin-5(4H)-yl)methanone], the values for the IC50 in assay [1] and in assay [2] were 3020 nM and 622 nM, respectively. In assay [3], this molecule came in with an inhibitory constant (Ki) of 100 nM. For the same molecule, in assay [4], the “PBMC 10 μM (% control)” value is given as −7.6 % control.
The corresponding values for `CC1c2nnn(-c3cnccn3)c2CCN1C(=O)c1cccc(C(F)(F)F)c1F` (stereo not shown) [Example 273, (2-fluoro-3-(trifluoromethyl)phenyl)(4-methyl-1-(pyrazin-2-yl)-6,7-dihydro-1H-[1,2,3]triazolo[4,5-c]pyridin-5(4H)-yl)methanone] are 83.2 nM, 7.6 nM, 18.2 nM and −2.1 % control.
Take `CC1c2nnn(-c3cnccn3)c2CCN1C(=O)c1ccc(Cl)cc1F` (stereo not shown) [Example 274, (4-chloro-2-fluorophenyl)(4-methyl-1-(pyrazin-2-yl)-6,7-dihydro-1H-[1,2,3]triazolo[4,5-c]pyridin-5(4H)-yl)methanone]: the IC50 in assay [1] was 1880 nM; in assay [2], 74.5 nM. In assay [3], this molecule yielded a Ki of 41.7 nM. The “PBMC 10 μM (% control)” value in assay [4] is reported as −4.8 % control.
